Blank lines part the entries; values can stand above or below the compound they belong to.
Tests used:
transglutaminase mRNA [1] = experiment: Transglutaminase mRNA in keratinocytes by Northern Blot; type: cell-based, Human
Protocol: (§1) Human keratinocyte cells were incubated in culture containing calcium at a concentration of 0.03 mM Ca^++ (a level that is too low to induce differentiation). Also included in the culture medium were clofibrate at 400 μM or ETYA at 10 μM and 20 μM, while separate cell cultures were maintained as controls with neither clofibrate nor ETYA. The production of mRNA for both involucrin and transglutaminase was measured at intervals over a 48-hour time period (0, 6, 12, 24, and 48 hours) by Northern Blot analysis. In each case, the lighter bars represent the control cells and the darker bars the cells incubated in the clofibrate-containing medium. The degree of mRNA generated is expressed as a percent of the control at zero hours.
(§2) Human epidermis was isolated from newborn foreskins and keratinocytes were plated in serum-free keratinocyte growth medium (“KGM”; Clonetics, San Diego, Calif. USA), using conventional techniques. Cells were treated with either the test compounds in vehicle or vehicle alone (<0.1% ethanol) for 24 or 48 hours. The test compounds were obtained from Sigma Chemical Co. (St. Louis. Mo. USA) and were stored as 15 mM stock solutions at −20° C. Mevalonate was solubilized in sterile water.
(§3) Total RNA was isolated by using TRIZOL (Sigma Chemical Co.), following the manufacturer's protocol. Ethanol-precipitate RNA pellets were suspended in sterile, diethylpyrocarbonate (DEPC)-treated water, and RNA was quantified by absorbance at 260 nm using the 260/280 nm ratio as an index of purity. RNA (15 μg per sample) was size fractionated through a 1% agarose gel containing 2.2 M formaldehyde. RNA integrity was visualized following acridine orange staining of the gel following electrophoresis. The RNA was transfered to a nylon membrane that was subsequently baked at 80° C. for 2 hours. Blots were hybridized with the appropriate ^32p-labeled probe overnight at 65° C. Washes were then performed in a solution containing 0.1% SSC and 0.1% sodium dedecyl sulfate (SDS) for 20 minutes at room temperature, followed by a 20-minute wash at 65° C. Autoradiography was performed at −70° C. Blots were probed with β-actin to confirm equal loading. Appropriate bands were quantified by densitometry.
(§4) Northern blot analyses were performed on keratinocytes maintained in low calcium (0.03 mM) and incubated for 24 hours in the presence of vehicle alone (<0.1% ethanol) or vehicle containing 25-hydroxycholesterol (10 μM), 22(R)-hydroxycholesterol (10 μM) cholesterol (10 μM), or mevalonate (500 μM) (individually). The mRNA levels of involucrin (“INV”) and transglutaminase (“TG'ase”) are shown in the bar graph of FIG. 14a, the INV indicated by clear bars and the TG'ase by shaded bars, both with error limits shown.

involucrin mRNA [2] = experiment: Involucrin mRNA in keratinocytes by Northern Blot; type: cell-based, Human
involucrin protein = experiment: Involucrin protein level in keratinocytes by Western Blot; type: cell-based, Human
Protocol: Measurements of the level of the involucrin protein itself were performed in the culture medium by Western Blot. Various incubations were performed, in media containing clofibrate at concentrations ranging from 0 (vehicle only) to 400 μM and calcium ion at both 0.03 mM and 1.2 mM. The results are shown in FIG. 9a for tests with calcium ion at 0.03 mM, and in FIG. 9b for tests with calcium ion at 1.2 mM. In these figures, the protein contents are expressed as percents of the respective measurements taken from media incubated for the same period of time but in the absence of clofibrate.
The procedures of Example 8 were followed, and measurements were taken on the involucrin protein levels from cells incubated at various concentrations of farnesol and juvenile hormone III ranging from 0 (vehicle only) to 15 μM, in media containing 0.03 mM and 1.2 mM calcium ion, for 24 hours. The results are shown in FIG. 10 for farnesol and FIG. 11 for juvenile hormone III, in 0.03 mM Ca^++.
Protein concentration was assessed by protein electrophoresis and Western blotting. Cells were lysed is 2% SDS and the lysate sonicated. Protein determinations were made by use of a Bicinchoninic add protein assay (Pierce Chemical Company, Rockford, Ill. USA). Following protein determination, equal amounts at protein (50 μg) were separated by electrophoresis an 7.5% polyacrylamide gels and electroblotted onto polyvinylidene […] membranes (0.2-μ, obtained from Bio-Rad Laboratories Hercules, Calif., USA). Involucrin protein was detected by incubation over-night at 4° C. C. with a polyclonal rabbit anti-human involucrin antibody (1:1000 dilution). The involucrin-specific bands on the autoradiograms were quantitated by densitometry by densitometry. Transglutaminase protein expression was measured in a similar mmaner, using stacking, sample and running buffers containing 4 M urea, and the gels following electrophoresis were washed in 4 M urea, 25 mM TRIS-HCl, pH 7.4, 7.5 mM NaCl, 0.1 mM dithiothreitol (DTT), and 2 mM ethylenediamine tetraacetic acid for 90 minutes prior to electoblotting, allowing the transglutaminase to be detected by antibody. Specific bands on the autoradiograms were quantified by densitometry.

[3] = test system: full-thickness flank skin from the fetal rats; experiment: Transepidermal water loss (TEWL) of fetal rat skin explants in organ culture (barrier function); type: cell-based, Sprague-Dawley rats
Protocol: Timed pregnant Sprague-Dawley rats (plug date=day 0) were obtained from Simonsen (Gilroy, Calif., USA) and fetuses were delivered prematurely on day 17. Transepidermal water loss (TEWL) was measured in excised full-thickness flank skin from the fetal rats after various times in culture. The skin explants were placed dermis-side down onto collagen membrane inserts (3μ pore size) in medium M-199 (serum-free), and submerged, and the lateral edges and dermal surface were sealed with petrolatum, such that water loss occurred only through the epidermal surface. Explant samples were weighed hourly, at ambient temperature (24±3° C.) and humidity (40±5%), over 6 hours using a Cahn balance (sensitivity 0.001 mg). TEWL levels are reported as milligrams of water lost per square millimeter of epidermal surface per hour. Fatty acids and clofibrate (p-chlorophenoxyisobutyric acid) were added to the medium bound to 0.5% (weight/volume) bovine serum albumin (BSA). Isoprenoids and oxysterols were added in ethanol (≦0.1%) and juvenile hormone III was added as a dimethylsulfoxide (DMSO) solution (≦0.1%). Control explants were incubated in the presence of the appropriate vehicle (≦0.1% DMSO or ethanol, and/or ≦0.5% BSA). Skin explants from gestational day 17 rats were incubated in the presence of either various activators or vehicle, and transepidermal water loss was measured after two days. The activators and the concentrations at which they were used were as follows: […]

[4] = test system: Normal human keratinocytes; experiment: Cornified envelope formation (35S incorporation) in keratinocytes; type: cell-based; details: 48 hours; for Cornified Envelope Formation (% of Control): control = 0.03 mM Ca++ vehicle, mean ± SEM; for increase in cornified envelope (CE) formation: 10 μM
transglutaminase mRNA [5] = experiment: Transglutaminase mRNA in keratinocytes by Northern Blot; type: cell-based, Human; remark: listed apart in the source
involucrin mRNA [6] = experiment: Involucrin mRNA in keratinocytes by Northern Blot; type: cell-based, Human; remark: listed apart in the source
Protocol: as §1, §2, §3, §4

[7] = 24 hours, 0 to 400 μM, in either 0.03 mM or 1.2 mM Ca++
[8] = 1.2 mM Ca++, 400 μM, all time points relative to the controls
[9] = 10 μM alone, 24 hours (Example 17)
[10] = low calcium (0.03 mM), 24 hours, 10 μM
[11] = 10 μM in the presence of mevalonate (10 μM), 24 hours

transglutaminase mRNA level (transglutaminase mRNA [1]; 0.03 mM Ca++, 400 μM, 0-48 hours, increase beginning at twelve hours): significantly increased levels
dose dependency of transglutaminase mRNA level (transglutaminase mRNA [1]; [7]): increase with increasing dosages
transglutaminase mRNA level (transglutaminase mRNA [5]; [8]): increased mRNA levels
Structure (SMILES): CCOC(=O)C(C)(C)Oc1ccc(Cl)cc1 [clofibrate, 2-(4-chlorophenoxy)-2-methylpropanoic acid ethyl ester]
involucrin mRNA level (involucrin mRNA [2]; [8]): increased mRNA levels
involucrin protein content (involucrin protein; 0 to 400 μM, calcium ion at both 0.03 mM and 1.2 mM): substantial increases in the protein content
EC50 ([3]; Rattus norvegicus, dose response, FIGS. 4a-4c, read-out: concentration of half-maximal effect on barrier development (TEWL)): ~250 µM
concentration of maximal effect on barrier development (TEWL) ([3]; dose response, FIGS. 4a-4c): approximately 500 μM
Cornified Envelope Formation (% of Control) ([4]; Calcium 0.03 mM, Clofibrate 50 μM): 121.4% ± 15.7 % of Control
Cornified Envelope Formation (% of Control) ([4]; Calcium 0.03 mM, Clofibrate 200 μM): 321.3% ± 30.4 % of Control
Cornified Envelope Formation (% of Control) ([4]; Calcium 0.03 mM, Clofibrate 400 μM): 386.8% ± 28.7 % of Control
Cornified Envelope Formation (% of Control) ([4]; Calcium 1.2 mM, Clofibrate 50 μM): 458.9% ± 39.8 % of Control
Cornified Envelope Formation (% of Control) ([4]; Calcium 1.2 mM, Clofibrate 200 μM): 529.3% ± 17.4 % of Control
Cornified Envelope Formation (% of Control) ([4]; Calcium 1.2 mM, Clofibrate 400 μM): 581.9% ± 28.7 % of Control
involucrin mRNA level (involucrin mRNA [6]; 0.03 mM Ca++, 400 μM, 0-48 hours, increase beginning at six hours): significantly increased levels
dose dependency of involucrin mRNA level (involucrin mRNA [6]; [7]): increase with increasing dosages

Structure (SMILES): C[C@H](CCCC(C)(C)O)[C@H]1CC[C@H]2[C@@H]3CC=C4C[C@@H](O)CC[C@]4(C)[C@H]3CC[C@]12C [25-hydroxycholesterol]
TG'ase mRNA level (transglutaminase mRNA [1]; [9]): two-fold increase
transglutaminase (TG'ase) mRNA level compared to the vehicle alone (transglutaminase mRNA [1]; [10]): approximate twofold increase
INV mRNA level (involucrin mRNA [2]; [11]): two-fold increase
increase in INV protein (involucrin protein; high calcium (1.2 mM), 15 μM): 3.2 fold
INV protein level relative to the control (involucrin protein; low calcium (0.03 mM), 24 hours): approximately 1.7 fold
effect on TEWL / barrier function ([3]; 50 μM, two days): neither mevalonate at 200 μM, 25-hydroxy cholesterol at 50 μM), squalene at 50 μM, geranylgeraniol at 50 μM, cis-farnesol at 50 μM, nor nerolidol at 100 μM significantly affected barrier function
increase in cornified envelope (CE) formation ([4]; high calcium (1.2 mM)): 1.75 fold
increase in cornified envelope (CE) formation ([4]; low calcium (0.03 mM)): 1.6 fold
TG'ase mRNA level (transglutaminase mRNA [5]; [11]): two-fold increase
INV mRNA level (involucrin mRNA [6]; [9]): two-fold increase
involucrin (INV) mRNA level compared to the vehicle alone (involucrin mRNA [6]; [10]): approximate twofold increase

— patent USRE37770E1, “Treatment of skin conditions by use of PPARα activators” (The Regents of the University of California, priority 1997, dated 2002)
